From US20230416262A1, “TRPML MODULATORS” (Casma Therapeutics, Inc., priority 2020, published 2023)

Tests used:
THP-1 cells = experiment: Lamp1 lysosomal exocytosis assay; assay type: cell-based; conditions: Homo sapiens, 55 min, 55 min incubation, top dose 20 μM
In short: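 THP-1 cells (1e5/well) exposed to a 7-point 3-fold compound series, top final 20 μM, for 55 min at 37°C. Surface Lamp1 then stained with Lamp1-PE on ice in buffer containing 80 μM Dynasore, and read by flow cytometry as PE geometric mean on live, sytox-negative singlets.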

TFEB = TFEB nuclear translocation assay; assay type: cell-based; conditions: Homo sapiens; HeLa wt or HeLa TRPML1 KO cells, treated for 2 hrs; ratio of nuclear to ring-region TFEB intensity
In short: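 HeLa wild-type or TRPML1 KO cells treated 2 h with compound at 37 °C, PFA-fixed, immunostained for TFEB (Alexa 488) with Hoechst nuclei. Imaged at ×20, four fields/well. Value is ratio of nuclear to perinuclear-ring TFEB intensity, with nuclei counts.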

EC50 (THP-1 cells) | EC50 (TFEB) | Structure (SMILES)
0.51 to 1 µM | ≤ 2 µM | O=C(OCc1cccnc1)N1CCC2(CC1)CN(S(=O)(=O)c1ccc(C(F)F)cc1)c1ccccc12 [Compound I-158, (pyridin-3-yl)methyl 1-[4-(difluoromethyl)benzenesulfonyl]-1,2-dihydrospiro[indole-3,4′-piperidine]-1′-carboxylate]
≤ 0.5 µM | ≤ 2 µM | CN(C)S(=O)(=O)c1ccc(S(=O)(=O)N2CC3(CCCC3)c3ccccc32)cc1 [Compound I-68, 4-({1′,2′-dihydrospiro[cyclopentane-1,3′-indol]-1′-yl}sulfonyl)-N,N-dimethylbenzene-1-sulfonamide]
0.51 to 1 µM | ≤ 2 µM | O=C(OCC1CC1)N1CCC2(CC1)CN(S(=O)(=O)c1ccc(C(F)F)cc1)c1ccccc12 [Compound I-170, cyclopropylmethyl 1-((4-(difluoromethyl)phenyl)sulfonyl)spiro[indoline-3,4′-piperidine]-1′-carboxylate]
≥ 5.01 µM | ≤ 2 µM | O=C(OCc1ccccc1)N1CCC2(CC1)CN(S(=O)(=O)c1ccc(C3CC3)cc1)c1ccccc12 [Compound I-188, benzyl 1-((4-cyclopropylphenyl)sulfonyl)spiro[indoline-3,4′-piperidine]-1′-carboxylate]
≥ 5.01 µM | 2.01 to 8 µM | COc1ccc(NC(=O)N2CCC3(CC2)CN(S(=O)(=O)c2ccc(C(F)F)cc2)c2ccccc23)c(OC)c1 [Compound I-227, 1-((4-(difluoromethyl)phenyl)sulfonyl)-N-(2,4-dimethoxyphenyl)spiro[indoline-3,4′-piperidine]-1′-carboxamide]
≥ 5.01 µM | ≥ 10 µM | O=C(OCc1ccccc1)N1CCC2(CC1)CN(C(=O)Nc1ccc(C(F)F)cc1)c1ccccc12 [Compound I-247, benzyl 1-((4-(difluoromethyl)phenyl)carbamoyl)spiro[indoline-3,4′-piperidine]-1′-carboxylate]
1.01 to 5 µM | ≤ 2 µM | COC1CCC2(CC1)CN(S(=O)(=O)c1ccc(S(=O)(=O)N(C)C)cc1)c1ccccc12 (stereo not shown) [Compound I-119, 4-({4-methoxy-1′,2′-dihydrospiro[cyclohexane-1,3′-indol]-1′-yl}sulfonyl)-N,N-dimethylbenzene-1-sulfonamide]
≥ 5.01 µM | ≤ 2 µM | CN(Cc1ccccc1)C(=O)C1CCC2(CC1)CN(S(=O)(=O)c1ccc(C(F)F)cc1)c1ccccc12 (stereo not shown) [Compound I-235, N-benzyl-1′-((4-(difluoromethyl)phenyl)sulfonyl)-N-methylspiro[cyclohexane-1,3′-indoline]-4-carboxamide]
1.01 to 5 µM | 2.01 to 8 µM | CN(C)S(=O)(=O)c1ccc(S(=O)(=O)N2CC3(CCCC3)c3ccncc32)cc1 [Compound I-127, 4-({1′,2′-dihydrospiro[cyclopentane-1,3′-pyrrolo[2,3-c]pyridin]-1′-yl}sulfonyl)-N,N-dimethylbenzene-1-sulfonamide]
≥ 5.01 µM | ≤ 2 µM | O=C(OCc1ccccc1)N1CCC2(CC1)CN(S(=O)(=O)c1ccc3c(c1)CCS3(=O)=O)c1ccccc12 [Compound I-182, benzyl 1-((1,1-dioxido-2,3-dihydrobenzo[b]thiophen-5-yl)sulfonyl)spiro[indoline-3,4′-piperidine]-1′-carboxylate]
≥ 5.01 µM | 2.01 to 8 µM | O=S(=O)(c1ccc2c(c1)CCC2)N1CC2(CCCC2)c2ccccc21 [Compound I-67, 1′-((2,3-dihydro-1H-inden-5-yl)sulfonyl)spiro[cyclopentane-1,3′-indoline]]
≤ 0.5 µM | ≤ 2 µM | O=C(OCc1ccccc1)N1CCC2(CC1)CN(S(=O)(=O)c1ccc(C(F)F)cc1)c1cccc(F)c12 [Compound I-130, benzyl 1-[4-(difluoromethyl)benzenesulfonyl]-4-fluoro-1,2-dihydrospiro[indole-3,4′-piperidine]-1′-carboxylate]
1.01 to 5 µM |  | O=C(OCc1ccccn1)N1CCC2(CC1)CN(S(=O)(=O)c1ccc(C(F)F)cc1)c1ccccc12 [Compound I-141, pyridin-2-ylmethyl 1-((4-(difluoromethyl)phenyl)sulfonyl)spiro[indoline-3,4′-piperidine]-1′-carboxylate]
≥ 5.01 µM |  | O=C(Nc1cnsc1)N1CCC2(CC1)CN(S(=O)(=O)c1ccc(C(F)F)cc1)c1ccccc12 [Compound I-202, 1-((4-(difluoromethyl)phenyl)sulfonyl)-N-(isothiazol-4-yl)spiro[indoline-3,4′-piperidine]-1′-carboxamide]
≥ 5.01 µM |  | O=C(NCCn1cccn1)N1CCC2(CC1)CN(S(=O)(=O)c1ccc(C(F)F)cc1)c1ccccc12 [Compound I-208, N-(2-(1H-pyrazol-1-yl)ethyl)-1-((4-(difluoromethyl)phenyl)sulfonyl)spiro[indoline-3,4′-piperidine]-1′-carboxamide]
≥ 5.01 µM |  | O=C(CC1CCOC1)N1CCC2(CC1)CN(S(=O)(=O)c1ccc(C(F)F)cc1)c1ccccc12 (stereo not shown) [Compound I-255, 1-(1-((4-(difluoromethyl)phenyl)sulfonyl)spiro[indoline-3,4′-piperidin]-1′-yl)-2-(tetrahydrofuran-3-yl)ethan-1-one]
≥ 5.01 µM |  | O=C(C1CCC2(CC1)CN(S(=O)(=O)c1ccc(C(F)F)cc1)c1ccccc12)N1CCOCC1 (stereo not shown) [Compound I-238, (1′-((4-(difluoromethyl)phenyl)sulfonyl)spiro[cyclohexane-1,3′-indolin]-4-yl)(morpholino)methanone]
≥ 5.01 µM |  | O=C(NCc1ccccc1)C1CCC2(CC1)CN(S(=O)(=O)c1ccc(C(F)F)cc1)c1ccccc12 (stereo not shown) [Compound I-143, N-benzyl-1′-((4-(difluoromethyl)phenyl)sulfonyl)spiro[cyclohexane-1,3′-indoline]-4-carboxamide]
≥ 5.01 µM |  | O=C(NCCC(F)(F)F)N1CCC2(CC1)CN(S(=O)(=O)c1ccc(C(F)F)cc1)c1ccccc12 [Compound I-214, 1-((4-(difluoromethyl)phenyl)sulfonyl)-N-(3,3,3-trifluoropropyl)spiro[indoline-3,4′-piperidine]-1′-carboxamide]
≥ 5.01 µM |  | O=C(NC1CCC(F)(F)CC1)N1CCC2(CC1)CN(S(=O)(=O)c1ccc(C(F)F)cc1)c1ccccc12 [Compound I-218, N-(4,4-difluorocyclohexyl)-1-((4-(difluoromethyl)phenyl)sulfonyl)spiro[indoline-3,4′-piperidine]-1′-carboxamide]
≥ 5.01 µM |  | O=C(Nc1cncc(F)c1)N1CCC2(CC1)CN(S(=O)(=O)c1ccc(C(F)F)cc1)c1ccccc12 [Compound I-210, 1-((4-(difluoromethyl)phenyl)sulfonyl)-N-(5-fluoropyridin-3-yl)spiro[indoline-3,4′-piperidine]-1′-carboxamide]
≥ 5.01 µM |  | O=C(NC1CCOC1)N1CCC2(CC1)CN(S(=O)(=O)c1ccc(C(F)F)cc1)c1ccccc12 (stereo not shown) [Compound I-195, 1-((4-(difluoromethyl)phenyl)sulfonyl)-N-(tetrahydrofuran-3-yl)spiro[indoline-3,4′-piperidine]-1′-carboxamide]
≥ 5.01 µM |  | O=C(NCc1ccccc1)N1CCC2(CC1)CN(S(=O)(=O)c1ccc(C(F)F)cc1)c1ccccc12 [Compound I-179, N-benzyl-1-((4-(difluoromethyl)phenyl)sulfonyl)spiro[indoline-3,4′-piperidine]-1′-carboxamide]
≥ 5.01 µM |  | O=C(NCc1ccccn1)C1CCC2(CC1)CN(S(=O)(=O)c1ccc(C(F)F)cc1)c1ccccc12 (stereo not shown) [Compound I-231, 1′-((4-(difluoromethyl)phenyl)sulfonyl)-N-(pyridin-2-ylmethyl)spiro[cyclohexane-1,3′-indoline]-4-carboxamide]
≥ 5.01 µM |  | CN(Cc1ccon1)C(=O)C1CCC2(CC1)CN(S(=O)(=O)c1ccc(C(F)F)cc1)c1ccccc12 (stereo not shown) [Compound I-242, 1′-((4-(difluoromethyl)phenyl)sulfonyl)-N-(isoxazol-3-ylmethyl)-N-methylspiro[cyclohexane-1,3′-indoline]-4-carboxamide]
≥ 5.01 µM |  | O=C(NCC(F)(F)F)N1CCC2(CC1)CN(S(=O)(=O)c1ccc(C(F)F)cc1)c1ccccc12 [Compound I-201, 1-((4-(difluoromethyl)phenyl)sulfonyl)-N-(2,2,2-trifluoroethyl)spiro[indoline-3,4′-piperidine]-1′-carboxamide]

Structure (SMILES) | EC50 (THP-1 cells) | EC50 (TFEB)
CN(C)S(=O)(=O)c1ccc(S(=O)(=O)N2CC3(CCN(CC4CCOCC4)CC3)c3ccccc32)cc1 [Compound I-98, N,N-dimethyl-4-({1′-[(oxan-4-yl)methyl]-1,2-dihydrospiro[indole-3,4′-piperidin]-1-yl}sulfonyl)benzene-1-sulfonamide] | 1.01 to 5 µM | ≤ 2 µM
O=S(=O)(c1ccc(C(F)F)cc1)N1CC2(CCN(Cc3cccnc3)CC2)c2ccccc21 [Compound I-165, 1-[4-(difluoromethyl)benzenesulfonyl]-1′-[(pyridin-3-yl)methyl]-1,2-dihydrospiro[indole-3,4′-piperidine]] | ≥ 5.01 µM | 2.01 to 8 µM
CC(F)(F)CN1CCC2(CC1)CN(S(=O)(=O)c1ccc(C(F)F)cc1)c1ccccc12 [Compound I-122, 1-((4-(difluoromethyl)phenyl)sulfonyl)-1′-(2,2-difluoropropyl)spiro[indoline-3,4′-piperidine]] | ≥ 5.01 µM | ≤ 2 µM
O=S(=O)(c1ccc(C(F)F)cc1)N1CC2(CCN(Cc3ncccn3)CC2)c2ccccc21 [Compound I-167, 1-[4-(difluoromethyl)benzenesulfonyl]-1′-[(pyrimidin-2-yl)methyl]-1,2-dihydrospiro[indole-3,4′-piperidine]] | ≥ 5.01 µM | 8.01 to 9.99 µM
